Legend:
Type in all cases: in vivo
[1] = system: myelin-related mRNA (CNP, MAG, MBP); assay: Ex.6 IL-1β induced diffuse white matter injury mouse model: myelin gene expression at P10 (qRT-PCR)
Method: Experimental protocols were approved by the institutional guidelines of the Institut National de la Santé et de la Recherche Scientifique (Inserm, France), and met the guidelines for the United States Public Health Service's Policy on Humane Care and Use of Laboratory Animals (NIH, Bethesda, Md., USA). Experiments were performed using OF1 strain mice purchased from Charles River (L'Arbresle, France) and born in our animal facility. Animals were housed under a 12 h light-dark cycle, had access to food and water ad libitum. Sex was determined at birth and confirmed at sacrifice. To avoid any potential variability linked to sex to differences. only male pups were used. Mice received twice a day from P1 to P4 and once on P5 a 5 μl intraperitoneal injection containing either PBS alone (sham group) or 10 μg/kg/dose recombinant mouse IL-1β in PBS. Vehicle group received only IL-1β injections while 10 μg E4 (5 mg/kg) or 20 μg E4 (10 mg/kg) was added to IL-1β once a day from P1 to P5 for E4 treated groups. Pups were sacrificed 3 hours after the first intraperitoneal injection at P1, 3 hours after last treatment at P5 or at P10 by intracardiac perfusion with NaCl 0.9% after anaesthesia by inhaled isoflurane.
At P10, anterior cortex and underneath white matter were collected and immediately frozen in nitrogen liquid, before storage at −80° C. for study of myelin-related mRNA expression.
Preparation of samples for quantitative reverse-transcriptase polymerase-chain reaction (qRT-PCR), primer design, and PCR protocol, were similar to that previously described (Favrais et al., 2011; Chhor et al., 2013). Briefly, RNA extraction was performed by with RNeasy mini kit according to the manufacturer's instructions (Qiagen, Courtaboeuf, France). RNA quality and concentration were assessed by spectrophotometry with the Nanodrop™ apparatus (Thermoscientific, Wilmington, Del., USA). Total RNA (0.5-1 μg) was subjected to reverse transcription using the iScript™ cDNA synthesis kit (Bio-Rad, Marnes-la-Coquette, France). qPCR was using SYBR Green Supermix (Bio-Rad). The relative expression of genes of interest (GOI) were expressed relative to expression of the reference gene, ribosomal protein L13a (Rpl13a) for CD11b+ cells and Glyceraldehyde 3-phosphate dehydrogenase (GAPDH) for O4+ cells and anterior brains based on reference gene suitability testing. Analyses were performed with the Biorad CFX manager 2.1 software. The relative quantities are expressed as the specific ratio between the gene of interest and Rpl13 or GAPDH. The data are presented as relative mRNA units with respect to control values (expressed as a fold-difference with respect to the mean of sham values).

[2] = Ex.2 neonatal HIE rat model, pre-treatment: brain weight; conditions: E4 5 mg/kg ip day 4-7 before HI; day 14; vs vehicle
Method: Ischemia was produced by surgery encompassing left common carotid artery double ligation and cut; hypoxia was produced by the inhalation of 11%-8% of oxygen balanced by nitrogen at decreased concentration of oxygen for 20 minutes, followed by inhalation of 8% oxygen and 92% nitrogen at constant concentration for 35 minutes.
Animals were then perfused transcardially with 0.9% saline solution at 4° C., and then with 4% paraformaldehyde in a 0.1-mol/L phosphate-buffered saline solution (pH 7.4) at 4° C. The brains were quickly isolated, weighed and immersed in the same fixative solution at 4° C. for 24 hours, dehydrated with a graded series of ethanol and xylene, and embedded in paraffin.
After delivery, newborn rat pups were assigned to one of the following 4 groups: Sham group, Vehicle group, E4 5 mg/kg/per day group and E4 50 mg/kg/per day group. From day 4 to day 7 inclusive, rat pups were injected intraperitoneally either vehicle (Vehicle group) or E4 (5 mg/kg or 50 mg/kg in accordance to the group assignment) or not injected at all (Sham group). […]

[3] = system: Myelin Basic Protein (MBP); assay: Ex.7 neuroprotective HIE rat model: myelin basic protein staining; conditions: vs vehicle
From the text: FIG. 21. Myelin Basic Protein (MBP) staining of brain coronal sections in rat pups that were pre-treated with estetrol. Brains were removed upon sacrifice at postnatal day 14 and paraformaldehyde-fixed and paraffin-embedded brain samples were coronally sectioned at the hippocampus region. The sections were processed for detection of white matter damage through immunohistological staining with anti-MBP antibody. (A-F) MBP staining of brain coronal sections (scale bar: 2 mm) is shown. (G-L) MBP staining of cingulum of the left hemisphere is (scale bar: 2 mm) shown. (M) The ratio of the MBP positive areas OD ratio was calculated as the MBP positive area OD of the ipsilateral hemisphere divided by the MBP positive area OD of the contralateral hemisphere. 10 samples from each study group were analyzed. The ratio of the MBP positive area OD in the Sham group was considered by default as 1.0.
The sections were processed for immunohistochemical detection of neuronal myelin basic protein disruption. For antigen retrieval, the sections were heated in 10 mmol/L citrate buffer (pH 6.0) at 100° C. for 10 min. […] 10 samples from each study group of both study designs were analyzed with the aid of an image scanner (Nanozoomer Virtual Microscopy, Hamamatsu, Tokyo, Japan) and ImageJ software (NIH, USA). The MBP positive areas optical densities in the ipsilateral and contralateral hemispheres were measured. […]

C[C@]12CC[C@@H]3c4ccc(O)cc4CC[C@H]3[C@@H]1[C@@H](O)[C@@H](O)[C@@H]2O [E4, 1,3,5(10)-estratrien-3,15α,16α,17β-tetrol]
CNP mRNA ([1]; E4 5 mg/kg, vs IL-1β): significant increase
MAG mRNA ([1]; E4 5 mg/kg, vs IL-1β): significant increase
MBP expression ([1]; E4 5 mg/kg, vs control group): not statistically different
MBP expression, increase ([1]; E4 5 mg/kg, vs vehicle group (p=0.11)): not significant
expression of myelin genes (MAG, MBP, CNP) ([1]; IL-1β+E4 10 mg/kg, vs IL-1β): No difference
brain weight [2]: significantly higher
ratio of the MBP-positive area OD ([3]; 5 mg/kg/day E4 pre-treated): significantly higher
ratio of the MBP-positive area OD ([3]; 50 mg/kg/day E4 pre-treated): significantly higher
